Literature values in patent US10507205B2, “Methods of treating opiate dependency and preventing non-oral opiate abuse among opiate addicts” (PURDUE PHARMACEUTICAL PRODUCTS L.P., priority 2006, dated 2019).

Details: pronounced first-pass metabolism, 'sometimes less than 5%'

## C=CCN1CCC23c4c5ccc(O)c4OC2C(=O)CCC3(O)C1C5 (stereo not shown) [naloxone, Naloxone]
  bioavailability of orally administered naloxone: less than 5%
